Laboratory results reported in patent US20100240713A1, “AROMATIC AND HETEROAROMATIC COMPOUNDS USEFUL IN TREATING IRON DISORDERS” (XENON PHARMACEUTICALS INC., priority 2007, published 2010).
Where a name gives a salt, the structure may show the parent alone.

System: not given
Assay: not given
Conditions: not given

| melting point | Compound |
| --- | --- |
| 258 to 261 °C | Cc1c(CSC(=N)N)cccc1CSC(=N)N (as salt: hydrobromid) [Example 3.21, (2-methyl-1,3-phenylene)bis(methylene)dicarbamimidothioate dihydrobromide] |
| 200 to 205 °C | N=C(N)Cc1cccc(CC(=N)N)c1 [Example 4, 2,2′-(1,3-phenylene)diacetimidamide] |
| 237 to 238 °C | CCOC(=O)c1cc(C(=O)OCC)c(CSC(=N)N)cc1CSC(=N)N (as salt: hydrobromid) [Example 3.4, diethyl 4,6-bis(carbamimidoylthiomethyl)isophthalate dihydrobromide] |
| 223 to 225 °C | Cc1cc(CSC(=N)N)c(O)c(CSC(=N)N)c1 (as salt: hydrobromid) [Example 6.2, (2-hydroxy-5-methyl-1,3-phenylene)bis(methylene)dicarbamimidothioate dihydrobromide] |
| 270 to 272 °C (dec.) | N#Cc1c(CSC(=N)N)cccc1CSC(=N)N (as salt: hydrobromid) [Example 3.14, (2-cyano-1,3-phenylene)bis(methylene)dicarbamimidothioate dihydrobromide] |
| 248 to 251 °C | Cc1cc(C)c(CSC(=N)N)cc1CSC(=N)N (as salt: hydrochloride) [Example 3.16, (4,6-dimethyl-1,3-phenylene)bis(methylene)dicarbamimidothioate dihydrochloride] |
| 142 to 144 °C | CC(C)(SC(=N)N)c1cccc(C(C)(C)SC(=N)N)c1 (as salt: hydrobromid) [Example 6, 2-{1-[3-(1-carbamimidoylsulfanyl-1-methylethyl)phenyl]-1-methylethyl}-isothiourea dihydrobromide] |
| 185 to 187 °C | Cc1nc(C)c(CSC(=N)N)c(C)c1CSC(=N)N (as salt: hydrochloride) [Example 8, (2,4,6-trimethylpyridine-3,5-diyl)bis(methylene)dicarbamimidothioate dihydrochloride] |
| 270 to 273 °C | Cc1c(CSC(=N)N)cc(CSC(=N)N)c(C)c1Br (as salt: hydrochloride) [Example 3.17, (5-bromo-4,6-dimethyl-1,3-phenylene)bis(methylene) dicarbamimidothioate dihydrochloride] |
| 236 to 239 °C | COc1c(CSC(=N)N)cc(C)cc1CSC(=N)N (as salt: hydrobromid) [Example 3.18, (2-methoxy-5-methyl-1,3-phenylene)bis(methylene)dicarbamimidothioate dihydrobromide] |
| 240 to 241 °C | Cc1cc(CSC(=N)N)cc(CSC(=N)N)c1 (as salt: hydrobromid) [Example 3.3, (5-methyl-1,3-phenylene)bis(methylene)dicarbamimidothioate dihydrobromide] |
| 196 to 200 °C | N=C(N)SCc1n[nH]c(CSC(=N)N)n1 (as salt: hydrochloride) [Example 3.8, (1H-1,2,4-triazole-3,5-diyl)bis(methylene)dicarbamimidothiodate dihydrochloride] |
| 208 to 210 °C | CC(C)c1cc(C(C)C)c(CSC(=N)N)cc1CSC(=N)N (as salt: hydrobromid) [Example 3.1, (4,6-diisopropyl-1,3-phenylene)bis(methylene)dicarbamimidothioate dihydrobromide] |
| 270 to 272 °C | CN/C(=N\C#N)NCc1c(C)cc(C)c(CN/C(=N/C#N)NC)c1C [Example 2, 1,3-di[(2-cyano-3-methylguanidino)methyl]-2,4,6-trimethylbenzene] |
| 230 to 233 °C | N=C(N)SCc1cccc2cccc(CSC(=N)N)c12 (as salt: hydrobromid) [Example 3.13, naphthalene-1,8-diylbis(methylene)dicarbamimidothioate dihydrobromide] |
| 215 to 218 °C | N=C(N)SC(=O)c1sc(C(=O)SC(=N)N)c(Cl)c1Cl (as salt: hydrochloride) [Example 9, 2-(5-carbamimidoylsulfanecarbonyl-3,4-dichlorothiophene-2-carbonyl)isothiourea dihydrochloride] |
| 208 to 210 °C | N=C(N)SCc1cccc(CSC(=N)N)n1 (as salt: hydrobromid) [Example 3.12, pyridine-2,6-diylbis(methylene)dicarbamimidothioate dihydrobromide] |
| > 265 °C | Cc1c(C)c(C)c(CSC(=N)N)c(CSC(=N)N)c1C (as salt: hydrobromid) [Example 3.22, (3,4,5,6-tetramethyl-1,2-phenylene)bis(methylene)dicarbamimidothioate dihydrobromide] |
| 213 °C (dec.) | N=C(N)SCc1nnc(CSC(=N)N)n1N (as salt: hydrochloride) [Example 3.7, (4-amino-4H-1,2,4-triazole-3,5-diyl)bis(methylene)dicarbamimidothioate dihydrochloride] |
| 223 to 225 °C | CNC(=N)SCc1c(C)cc(C)c(CSC(=N)NC)c1C.Cl [Example 7, 1,3-di[(methylamidino)thiomethyl]-2,4,6-trimethylbenzene 4-methylbenzenesulfonate hydrochloride] |
| > 260 °C | Cc1c(C)c(CSC(=N)N)c(C)c(CSC(=N)N)c1C (as salt: hydrochloride) [Example 3.5, (2,4,5,6-tetramethyl-1,3-phenylene)bis(methylene)dicarbamimidothioate dihydrochloride] |

Molecular target: T1, DMT1 (Homo sapiens, UniProt P49281)
T1 sequence (P49281 1-568): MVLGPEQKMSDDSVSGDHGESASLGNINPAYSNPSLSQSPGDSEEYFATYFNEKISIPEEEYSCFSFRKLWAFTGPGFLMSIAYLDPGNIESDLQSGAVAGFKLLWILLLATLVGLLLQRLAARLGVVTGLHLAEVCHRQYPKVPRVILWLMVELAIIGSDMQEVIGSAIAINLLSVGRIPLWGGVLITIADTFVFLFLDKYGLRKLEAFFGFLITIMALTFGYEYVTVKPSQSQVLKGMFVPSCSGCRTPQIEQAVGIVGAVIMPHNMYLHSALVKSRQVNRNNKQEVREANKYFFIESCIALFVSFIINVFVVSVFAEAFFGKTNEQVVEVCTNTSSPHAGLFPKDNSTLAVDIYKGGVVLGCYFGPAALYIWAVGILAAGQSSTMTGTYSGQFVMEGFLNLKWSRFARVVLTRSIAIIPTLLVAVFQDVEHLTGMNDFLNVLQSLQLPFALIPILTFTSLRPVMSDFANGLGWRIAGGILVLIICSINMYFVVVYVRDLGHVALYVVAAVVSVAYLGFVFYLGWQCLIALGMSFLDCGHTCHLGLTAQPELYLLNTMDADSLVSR
Assay: DMT1 activity assay (IC50 activity level, Table 1)
Format: cell-based
Conditions: inhibition of DMT1
Source text: This example discloses various in vitro assay for testing and profiling test agents against DMT1 stably expressed in cells of either an endogenous or recombinant origin. These assays can use stable cell lines overexpressing DMT1 or intestinal cells and intestinal tissue expressing endogenous DMT1. DMT1 function could also be assessed in other cell types that express DMT1. Of greatest relevance would be the erythrocytes (e.g. K562 cells) or hepatocytes (e.g. […]).
DMT1 function can be assessed in a number of ways, including monitoring fluorescence changes of an iron fluorophore (e.g. calcein), monitoring uptake of radiolabelled iron (^55Fe or ^59Fe) (Picard et al., J. Biol. Chem., 2000, 275(46):35738-45 and Wetli et al., Chem. Biol. 2006 September; 13(9):965-72), or by assessing the current or transport of iron and other metals into the cells or tissues using standard electrophysiological techniques (Gunshin et al., Nature, 1997, 388(6641):482-8.).
Variations of these assays involve alterations of incubation times, the iron status of the cells and tissues (which may be modulated by chemical chelators or by harvesting from iron deficient animals), the metal cation detected and the pH of the reaction can generally be made by conventional techniques known to those skilled in the art.
The Example numbers provided in Table 1 correspond to the Examples herein: […]

| IC50 [nM] | Compound |
| --- | --- |
| ≥ 1000 | N=C(N)Cc1cccc(CC(=N)N)c1 [Example 4, 2,2′-(1,3-phenylene)diacetimidamide] |
| ≥ 1000 | CN/C(=N\C#N)NCc1c(C)cc(C)c(CN/C(=N/C#N)NC)c1C [Example 2, 1,3-di[(2-cyano-3-methylguanidino)methyl]-2,4,6-trimethylbenzene] |
| ≥ 1000 | CNC(=N)SCc1c(C)cc(C)c(CSC(=N)NC)c1C.Cl [Example 7, 1,3-di[(methylamidino)thiomethyl]-2,4,6-trimethylbenzene 4-methylbenzenesulfonate hydrochloride] |
